Bridge positions count the residues as written; N and C are the ends. Peptide text beside a SMILES is read from it.
Experiments:
[1] = CD spectra and thermal denaturation of peptide-only samples (helicity, homodimer Tm)
Method: (§1) Circular Dichroism (CD): An Applied Photophysics Chirascan was used for CD measurements, with a 200 μL sample in a 1 mm path length CD cell. Protein/DNA samples were suspended in 150 mM potassium phosphate, 150 mM potassium fluoride and 5 mM TCEP at pH 7.4 and were equilibrated for 30 minutes before measurement. […] These scans were averaged and converted to molar residue ellipticities (MRE). Thermal denaturation experiments were performed by measuring the ellipticity at 222 nm over a 1 to 90° C. gradient at 1° C. increments. Post-melt scans at 20° C. confirmed the transitions were reversible as they overlaid within 10% of the pre-melt scan.
(§2) Circular Dichroism (CD): An Applied Photophysics Chirascan was used for CD measurements, with a 200 μL sample in a 1 mm path length CD cell. Protein/DNA samples were suspended in 150 mM potassium phosphate, 150 mM potassium fluoride and 5 mM TCEP at pH 7.4 and were equilibrated for 30minutes before measurement. […] Thermal denaturation experiments were performed by measuring the ellipticity at 222 nm over a 1 to 90° C. gradient at 1° C. increments. Post-melt scans at 20° C. confirmed the transitions were reversible as they overlaid within 10% of the pre-melt scan.
(§3) Peptide helicity was determined by quantifying the CD signal at 222 nm of peptide only samples. Thermal denaturation experiments were then used to determine the Tm of peptide-c-Jun heterodimers, which was used as an approximate measure of target engagement. […] The same 60 amino acid c-Jun bZIP construct was used for all experiments, regardless of antagonist peptide length.

[2] = target: T1, cJun/TRE DNA interaction (Homo sapiens, UniProt P05412, S292Y); test: CD cJun/TRE DNA antagonism (shift of TRE DNA peak at ~281 nm, Hill fit); type: biochemical; settings: ratio of CD IC50
T1 construct: The same 60 amino acid c-Jun bZIP construct was used for all experiments; His-SUMO (N, cleaved yes); made in house; host or cells: E. coli
Source text: Briefly, in TBS the coding region for the essential gene dihydrofolate reductase (DHFR) is mutated to incorporate TRE sites so that introduction of c-Jun to this gene inside E. coli produces a transcriptional block that abrogates cell proliferation. The TRE site-bound c-Jun molecules sterically prevent RNA polymerase transcribing the essential gene and this can only be restored upon introduction of an effective c-Jun/TRE antagonist. Consequently, the survival of a particular cell is controlled by the ability of a peptide library member to remove the c-Jun transcriptional block and therefore to restore DHFR activity. TBS thus facilitates the identification of therapeutically valuable sequences. Further details for the TBS assay are provided in WO2020128015, which is incorporated herein by reference in its entirety. […] The TRE-DNA construct produces a positive CD peak at ˜281 nm, which decreases in intensity upon c-Jun binding. […] This method allows for the calculation of an IC50 value by fitting the titration data to a Hill equation. In some embodiments, the c-Jun antagonist is able to inhibit the DNA-binding activity of c-Jun within 10-fold of the ability of HingeW to inhibit the DNA-binding activity of c-Jun (e.g. the c-Jun antagonist has a reduced ability to inhibit the DNA-binding activity of c-Jun that is within 10-fold of that determined for HingeW). In some embodiments, the c-Jun antagonist is able to inhibit the DNA-binding activity of c-Jun within 9-fold, preferably within 8-fold, more preferably within 7-fold, even more preferably within 6-fold, yet more preferably within 5-fold of the ability of HingeW to inhibit the DNA-binding activity of c-Jun. The ability of the c-Jun antagonist and HingeW to inhibit the DNA-binding activity may be measured using the TBS assay (e.g. by quantifying the number of colonies) or by determining the IC50 using a circular dichroism assay described herein. Optionally, the c-Jun antagonist may have this activity when cross-linked. Methods for cross-linking peptides are described in more detail below.
Therefore, the acidic domain was the initial focus for optimisation. 1 was iteratively truncated (2-6) to investigate the effect on c-Jun binding and c-Jun/TRE DNA antagonism. […] Thermal denaturation experiments were then used to determine the Tm of peptide-c-Jun heterodimers, which was used as an approximate measure of target engagement. CD was also used to investigate the ability of the functional activity of peptides in antagonising the c-Jun/TRE DNA interaction. The TRE-DNA construct used produces a positive CD peak at ˜281 nm (no c-Jun absorbance at this wavelength allows for direct measurement of DNA upon binding) which decreases in intensity upon c-Jun binding. […] This allowed for the calculation of an IC50 value by fitting the titration data to a Hill equation. […] The same 60 amino acid c-Jun bZIP construct was used for all experiments, regardless of antagonist peptide length.

[3] = target: cJun bZIP (Homo sapiens, UniProt P05412, S292Y); test: CD spectra and thermal denaturation of peptide/cJun heterodimers; settings: peptide (5 μM)/c-Jun (5 μM) heterodimer; Table 6
Method: as §1, §2, §3

[4] = target: cJun (Homo sapiens, UniProt P05412, S292Y); test: Isothermal titration calorimetry, Example 2 (PEAQ-ITC); type: binding; design: The same 60 amino acid c-Jun bZIP construct was used for all experiments; His-SUMO (N, cleaved yes); made in house; host or cells: E. coli; settings: ITC
Method: 2 μL injections of antagonist peptide at 25-200 μM were injected into the cell containing cJun at 2.5-20 μM. Software was used to record and analyse the heat change upon addition. Control experiments involved the injection of the antagonist peptide sample into the cell containing ITC buffer alone to determine the heat of dilution which was subtracted. The resulting binding data were fit to a one site binding model to extract the enthalpy change of binding (ΔH) and the equilibrium binding constant (KD), from which the free energy change of binding (ΔG) and the entropy change of binding (ΔS) was calculated (Wiseman et al., 1989). Thermodynamic parameters are presented as an average of two independent experiments with errors given as one standard deviation.

Compound: RIKAERKRMRNRIAASKCRKRKLERIARLEEKVKTLKAQNYELASTANMLREQVAQLGAP [cJun]
- Fraction helicity at 20° C. (CD) ([1]; peptide alone): 14.0%
- Tm (° C.) (CD) ([1]; peptide alone (homodimer)): 39.8 °C

Compound: CC[C@H](C)[C@H](NC(=O)[C@H](CCC(=O)O)NC(=O)[C@@H]1CC(=O)NCCCC[C@H](NC(=O)[C@H](CC(N)=O)NC(=O)[C@H](CCCCN)NC(=O)[C@H](CCC(=O)O)NC(=O)[C@H](CCC(=O)O)NC(=O)[C@H](CC(C)C)NC(=O)[C@H](CCC(N)=O)NC(=O)[C@H](CCC(=O)O)NC(=O)[C@@H](NC(=O)[C@H](CCC(=O)O)NC(=O)[C@H](CCC(=O)O)NC(=O)[C@H](CCC(=O)O)NC(=O)[C@H](CC(C)C)NC(=O)[C@@H](NC(=O)[C@H](CC(=O)O)NC(=O)[C@H](CCC(=O)O)NC(=O)[C@H](CCC(=O)O)NC(=O)[C@@H](NC(=O)[C@@H](NC(=O)[C@H](CC(C)C)NC(C)=O)C(C)C)C(C)C)C(C)C)[C@@H](C)CC)C(=O)N[C@@H](C)C(=O)N[C@@H](CC(C)C)C(=O)N[C@@H](CCCCN)C(=O)N1)C(=O)N[C@@H](CCC(=O)O)C(=O)N[C@@H](CC(=O)O)C(=O)N[C@@H](CC(C)C)C(=O)N[C@@H](CCC(N)=O)C(=O)N[C@@H](CCCCN)C(=O)N[C@@H](CCC(N)=O)C(=O)N[C@@H](CC(C)C)C(=O)N[C@@H](CCC(=O)O)C(=O)N[C@@H](CCCCN)C(=O)N[C@@H](CC(C)C)C(=O)N[C@@H](Cc1ccc(O)cc1)C(N)=O [Peptide 8]
- fold increase in antagonism relative to the linear counterpart 5 [2]: 1.8 fold
- Tm (° C.) [3]: 67.2 ± 0.8 °C

Compound: Ac-LEKEAEELVVEEDVLEEEIEQLEERNYALRKEIEDLQKQLEKL-NH2 [Peptide 3]
- fold reduction in antagonism relative to 2 [2]: 2 fold
- Tm (° C.) [3]: 67.9 ± 0.9 °C

Compound: Ac-EAEELVVEEDVLEEEIEQLEERNYALRKEIEDLQKQ-NH2 [Peptide 11]
- fold reduction in antagonism relative to 4 [2]: 1.8 fold
- Tm (° C.) [3]: 57.1 ± 0.9 °C
- ΔG [4]: -34.10 ± 0.41 kJ/mol
- ΔH [4]: -25.06 ± 3.40 kJ/mol
- −TΔS [4]: -8.95 ± 3.42 kJ/mol
- Stoichiometry, n ([4]; c-Jun-peptide interaction): 0.95 ± 0.09

Compound: CC[C@H](C)[C@H](NC(=O)[C@H](CCC(=O)O)NC(=O)[C@H](CCCCN)NC(=O)[C@H](CCCNC(=N)N)NC(=O)[C@H](CC(C)C)NC(=O)[C@H](C)NC(=O)[C@H](Cc1ccc(O)cc1)NC(=O)[C@H](CC(N)=O)NC(=O)[C@H](CCCNC(=N)N)NC(=O)[C@H](CCC(=O)O)NC(=O)[C@H](CCC(=O)O)NC(=O)[C@H](CC(C)C)NC(=O)[C@H](CCC(N)=O)NC(=O)[C@H](CCC(=O)O)NC(=O)[C@@H](NC(=O)[C@H](CCC(=O)O)NC(=O)[C@H](CCC(=O)O)NC(=O)[C@H](CCC(=O)O)NC(=O)[C@H](CC(C)C)NC(=O)[C@@H](NC(=O)[C@H](CC(=O)O)NC(=O)[C@H](CCC(=O)O)NC(=O)[C@H](CCC(=O)O)NC(=O)[C@@H](NC(=O)[C@@H](NC(=O)[C@H](CC(C)C)NC(=O)[C@@H]1CC(=O)NCCCC[C@H](NC(C)=O)C(=O)N[C@@H](CCC(=O)O)C(=O)N[C@@H](C)C(=O)N[C@@H](CCC(=O)O)C(=O)N1)C(C)C)C(C)C)C(C)C)[C@@H](C)CC)C(=O)N[C@@H](CCCCN)C(=O)N[C@@H](CC(=O)O)C(=O)N[C@@H](CC(C)C)C(=O)N[C@@H](CCC(N)=O)C(=O)N[C@@H](CC(=O)O)C(=O)N[C@@H](CCC(N)=O)C(N)=O [Peptide 13] (Ac-KEAEDLVVEEDVLEEEIEQLEERNYALRKEIKDLQDQ-NH2; lactam 1-5)
- Tm (° C.) [3]: 58.5 ± 1.0 °C
- change in fraction helicity from lactamisation ([1]; cyclised vs its linear form): ~1%

Compound: CC[C@H](C)[C@H](NC(=O)[C@H](CCC(=O)O)NC(=O)[C@@H]1CC(=O)NCCCC[C@H](NC(=O)[C@H](CC(N)=O)NC(=O)[C@H](CCCCN)NC(=O)[C@H](CCC(=O)O)NC(=O)[C@H](CCC(=O)O)NC(=O)[C@H](CC(C)C)NC(=O)[C@H](CCC(N)=O)NC(=O)[C@H](CCC(=O)O)NC(=O)[C@@H](NC(=O)[C@H](CCC(=O)O)NC(=O)[C@H](CCC(=O)O)NC(=O)[C@H](CCC(=O)O)NC(=O)[C@H](CC(C)C)NC(=O)[C@@H](NC(=O)[C@H](CC(=O)O)NC(=O)[C@H](CCC(=O)O)NC(=O)[C@H](CCC(=O)O)NC(=O)[C@@H](NC(=O)[C@@H](NC(=O)[C@H](CC(C)C)NC(=O)[C@H](CCC(=O)O)NC(=O)[C@H](CCC(=O)O)NC(=O)[C@H](C)NC(=O)[C@H](CCC(=O)O)NC(C)=O)C(C)C)C(C)C)C(C)C)[C@@H](C)CC)C(=O)N[C@@H](C)C(=O)N[C@@H](CC(C)C)C(=O)N[C@@H](CCCCN)C(=O)N1)C(=O)N[C@@H](CCC(=O)O)C(=O)N[C@@H](CC(=O)O)C(=O)N[C@@H](CC(C)C)C(=O)N[C@@H](Cc1ccc(O)cc1)C(N)=O [Peptide 27] (Ac-EAEELVVEEDVLEEEIEQLEEKNKALKDEIEDLY-NH2; lactam 24-28)
- fold reduction in cJun/TRE antagonism relative to 1 [2]: 8.8 fold
- Tm (° C.) [3]: 52.5 ± 1.4 °C

Compound: Ac-EDVLEEEIEQLEERNYALRKEIEDLQKQLEKLGAP-NH2 [Peptide 6]
- fold reduction in antagonism relative to 5 [2]: 1.7 fold
- fold reduction in cJun/TRE antagonism relative to 1 [2]: 9.7 fold
- Tm (° C.) [3]: 55.1 ± 1.1 °C

Compound: CC[C@H](C)[C@@H]1NC(=O)[C@H](CCC(=O)O)NC(=O)[C@@H](NC(=O)[C@H](CCCNC(=N)N)NC(=O)[C@H](CC(C)C)NC(=O)[C@H](C)NC(=O)[C@H](Cc2ccc(O)cc2)NC(=O)[C@H](CC(N)=O)NC(=O)[C@H](CCCNC(=N)N)NC(=O)[C@H](CCC(=O)O)NC(=O)[C@H](CCC(=O)O)NC(=O)[C@H](CC(C)C)NC(=O)[C@H](CCC(N)=O)NC(=O)[C@H](CCC(=O)O)NC(=O)[C@@H](NC(=O)[C@H](CCC(=O)O)NC(=O)[C@H](CCC(=O)O)NC(=O)[C@H](CCC(=O)O)NC(=O)[C@H](CC(C)C)NC(=O)[C@@H](NC(=O)[C@H](CC(=O)O)NC(=O)[C@H](CCC(=O)O)NC(=O)[C@H](CCC(=O)O)NC(=O)[C@@H](NC(=O)[C@@H](NC(=O)[C@H](CC(C)C)NC(=O)[C@H](CCC(=O)O)NC(=O)[C@H](CCC(=O)O)NC(=O)[C@H](C)NC(=O)[C@H](CCC(=O)O)NC(C)=O)C(C)C)C(C)C)C(C)C)[C@@H](C)CC)CCCCNC(=O)C[C@@H](C(=O)N[C@@H](CC(C)C)C(=O)N[C@@H](CCC(N)=O)C(N)=O)NC(=O)[C@H](CCC(=O)O)NC1=O [Peptide 29] (Ac-EAEELVVEEDVLEEEIEQLEERNYALRKEIEDLQ-NH2; lactam 28-32)
- fold reduction in cJun/TRE antagonism relative to 1 [2]: 10.4 fold
- Tm (° C.) [3]: 57.2 ± 0.4 °C
